Results on one compound are retold here after patent publication US10806711B2 (priority 2011, dated 2020).

Entries after “also recorded” stand apart in the source; their conditions may differ.

Data set [1] has as its system WT mice. Nature of the data set: Invasive evaluation of +dP/dt (LV pressure catheter). Type of data set: in vivo, mouse. Conditions: 30 mg/kg and 100 mg/kg bolus IV, 5 minutes between doses. On the procedure:
Invasive evaluation.—Once a dose range was established, a separate group of WT mice were anesthetized with an intraperitoneal injection of ketamine (50 μg/g) and inactin (thiobutabarbital, 100 μg/g, Sigma, Mass.). A tracheotomy was performed (PE-90), and body temperature was monitored and maintained with a feedback-controlled heating table. The right femoral artery was cannulated with fluid-filled polyethylene tubing for measurement of blood pressure and connected to a low compliance pressure transducer (COBE Cardiovascular, Arvada, Colo.). The right femoral vein was cannulated for delivery of drugs. A high fidelity, 1.2-French SciSence pressure catheter (SciSence, London, ON, Canada) was inserted into the right carotid artery and advanced into the left ventricle to monitor cardiac performance. ECG leads were placed on the right and left arms, and left leg and connected to a BIOAmp (AD Instruments, Colorado Springs, Colo.). For carotid blood flow measurements, the left carotid artery was isolated and fitted with a 0.5-PSB perivascular flow probe connected to a TS420 flowmeter (Transonic Systems, Ithaca, N.Y.). […] Hemodynamic variables were collected and analyzed using a MacLab 4/S system (AD Instruments, Colorado Springs, Colo.) and Chart software.

The subject of data set [2] is WT mice. As to the kind of experiment: In vivo electrophysiology (electrocardiographic data during echo studies). Details: species or system mouse. How it is done:
In vivo electrophysiology—Electrocardiographic data was obtained during all echocardiographic studies. These studies were subsequently analyzed by an independent, blinded reader at all time points to evaluate for electrocardiographic changes and drug induced arrhythmias. The following parameters were measured: PR interval, RR interval, QRS width and were reported as peak change while the presence of supraventricular or ventricular arrhythmias was measured as a total observed over all images obtained in 30 minutes.

Data set [3] relates to isolated ventricular myocytes. As to the kind of experiment: Whole-cell patch clamp Ca2+ current recording. Conditions: myocytes held at −70 mV, 0.1 μM. It counts as cell-based, mouse. How it is done: Electrophysiological recordings—Isolated myocytes were perfused with a Na^+- and K^+-free solution containing (mM): tetraethylammonium chloride (TEA-Cl) 137, CsCl 5.4, CaCl2 2, MgCl2 1, HEPES 5, glucose 10 and 4-aminopyridine 3 (pH=7.4). Whole-cell patch clamp recordings were performed with an Axopatch-1B amplifier. For Ca^2+ current recordings, glass pipettes were filled with solution containing (mM): aspartic acid 115, CsOH 115, CsCl 20, EGTA 11, HEPES 10, MgCl2 2.5, Na-GTP 0.1, Mg-ATP 2 (pH adjusted to 7.2 with CsOH). Probenecid was dissolved in a Na^+- and K^+-free solution which was used to perfuse the myocytes. Data were collected using pCLAMP9 software through an Axon Digidata 1322A data acquisition system. All experiments were performed at room temperature (24° C.).

Data set [4] relates to TRPV2^+/− mice. As to the kind of experiment: Contractility by echo after IP probenecid in TRPV2+/− mice. Type of data set: in vivo, mouse. Conditions: 100 mg/kg. How it is done: WT, TRPV2^+/−, and TRPV2^−/− mice were monitored by echo for 30 minutes after injection as described below. Echocardiography—All echocardiographic studies were performed with a Vevo 2100 Ultrasound system (Visualsonics, Toronto Calif.) with an MS400 probe (30 MHz centerline frequency) and were post-processed at a separate workstation with Vevostrain software (Vevo 2100, v1.1.1 B1455, Visualsonic, Toronto, Canada). Images were obtained from PSLAX and short axis (SAX) views at depths between 2 and 10 mm in both M-mode and B-mode. All studies on mice exposed to I/R injury included M-mode, B-mode in PSLAX and strain imaging in SAX. While for the contractility studies, only M-mode measurements were obtained from the PSLAX. Strain imaging was performed from the B-mode images and regional radial strain and circumferential displacement were measured by regional wall and summed average from the SAX images. From the M-mode images, left ventricular cavity size and wall thickness was measured and the ejection fraction (EF) and fractional shortening (FS) calculations were obtained using the Vevo software. […] In addition, the average change from baseline for each time point between 5 and 30 minutes was determined for each mouse, with measurements being taken every 5 minutes. […]

For data set [5], the system named is isolated ventricular myocytes. Nature of the data set: Myocyte Ca2+ transient and cytosolic Ca2+ measurement. Type of data set: cell-based, mouse. How it is done: Isolation of ventricular myocytes—Hearts from WT mice (12-week old) were perfused on the Langendorff system with a modified Krebs-Henseleit buffer (KHB) composed of (mM) NaCl 118, KCl 5.4, HEPES 10, NaH2PO4 0.33, MgCl2 2, glucose 10, taurine 30, butanedione monoxime 10 (pH=7.4). Then an enzyme solution (KHB containing 0.7 mg/ml type II collagenase, 0.1% BSA and 25 μM CaCl2) was used to digest the hearts for 10 min. Finally, ventricles of the hearts were excised, minced and filtered to obtain isolated cells. After sufficient sedimentation, the supernatant was removed and the cells were resuspended.
Myocyte Ca^2+ transient and cytosolic Ca^2+ measurement—Myocytes were loaded with Fluo-4 acetoxymethyl ester (7 μM) for 20 min at room temperature, followed by a 10 min wash with Tyrode's solution, and then placed onto a plexiglass chamber for recording. For Ca^2+ transient measurements, myocytes were excited under 0.5 Hz and 3 Hz field stimulation, and the fluorescence signals were obtained using a Nikon TE 2000 microscope and collected through an InCyt Standard photometry system. For cytosolic Ca^2+ analysis in quiescent myocytes, a Zeiss LSM 510 confocal microscope was used to record fluorescent images from resting myocytes. Line-scan mode was applied at 3.07 ms intervals with 512 pixels spaced at 0.056 μm. Drugs were dissolved in Tyrode's solution and perfused into the chamber. Images of myocytes were recorded every 30 s after drug application. Data analysis was performed using Clampfit 9.2 and Image J 1.44 software.
Water soluble probenecid was used for all of the myocyte experiments.

With `CCCN(CCC)S(=O)(=O)c1ccc(C(=O)O)cc1` [probenecid], in data set [1], the “peak +dP/dt in vivo” value is “rapidly increased”. Further, the “electrocardiographic differences between WT and TRPV2−/− mice (FIG. 2D)” value in data set [2] (100 mg/kg IP) is given as “no significant differences”. Besides, the “changes in conduction intervals (RR, PR, QRS)” value in data set [2] (all doses) was “no measured changes in any conduction intervals; also recorded: no significant changes in any of the measured electrocardiographic variables”. Also, in data set [2] (any dose of probenecid, observed over 30 minutes), the “supraventricular or ventricular arrhythmias, premature beats” value is “No supraventricular or ventricular arrhythmias or premature atrial or ventricular beats were observed; also recorded: no arrhythmias”. Besides, in data set [3], the “inward Ca2+ current” value was “No measurable inward Ca^2+ current was detected”. Further, in data set [4], the “decrease in contractility response versus WT” value is listed as “approximately 50%”. Further, in data set [5] (0.1 μM), the “decay rate (Tau) of Ca2+ transient” value was “not affected” and the “time to peak of cytosolic Ca2+ after treatment” value is listed as “approximately 5 min”. The “Ca2+ spark frequency” value in data set [5] (0.1 μM for 5 minutes, from 1.45±0.09) worked out at 2.99±0.24. For the same compound, the “increase of cytosolic Ca2+ compared to control at steady state” value in data set [5] (0.1 μM, quiescent myocytes) is recorded as 2.5±0.2 fold. The “Ca2+ transient amplitude (ΔF/F0)” value in data set [5] (0.1 μM, from 3.35±0.20, P<0.001) amounted to 4.25±0.25.
